Earlier results, collected in patent US20130102469A1, “Method and compound for removing flora from sewer lines” (Swartz family dba Olvidium, priority 2011, published 2013).

Tested on: tree roots

## c1cc[n+]2c(c1)-c1cccc[n+]1CC2 [Diquat]
Sewer line use, roots coated with organic detritus
  root kill (in words): spotty and inconsistent root kill

## CNC(=S)[S-].[Na+] [Metham Sodium]
Inside the pipe and outside the pipe where the gas travels
  root kill: 100%

## N#Cc1c(Cl)cccc1Cl [Dichlobenil, 2,6 dichlorobenzonitrile]
Sewer line root control
  distance back from the contact site over which roots are killed: 1-2 ″
